US7838516B2, “15 β-substituted steroids having selective estrogenic activity” (priority 2004, dated 2010)

What was measured:
[1] = test system: Cynomolgus monkey uterine tissue (endometrium); test: Histopathological evaluation of Cynomolgus monkey uterine tissue after 8 week oral treatment; format: in vivo; conditions: 8 weeks, average score per category, grades 0-5
Protocol: Histopathological evaluation of Cynomolgus monkey uterine tissue was performed by a pathologist after an 8 week oral treatment with the test compound in four animals per treatment group. […] The following morphological characteristics were examined in H&E stained sections, based on the uterine phases of the normal menstrual cycle in Cynomolgus monkeys. • A. Follicular phase-like changes: • loose endometrial stroma • straight endometrial glands • hypertrophy of endometrial epithelium • mitotic figures • hypertrophy of myometrium • early angiogenesis (sprouting or early proliferation) • basal secretion • B. Luteal phase-like changes • pseudodecidually enlarged stromal cells • coiling of endometrial glands • late angiogenesis (spiral artery formation) • vacuolation of endometrial epithelium • luminal secretion • C. Ovariectomized or non-stimulated (atrophic) endometrium • compact endometrial stroma • atrophy of endometrial epithelium • atrophy of endometrial glands • atrophy of myometrium The severity of each of these above-mentioned findings was scored using a scale of grading: • grade 0: finding not present • grade 1: minimal, very few, very small • grade 2: slight, few, small • grade 3: moderate, moderate number, moderate size • grade 4: marked, many, large • grade 5: massive, extensive number, extensive size For each animal this grading was done. Then the average score per treatment group was calculated for each characteristic. Finally, an average score per category, atrophic, follicular- or luteal phase-like, was calculated from the average individual characteristics. A favourable endometrial safety profile for a compound is characterized by less compound-induced follicular phase-like activity combined with more luteal phase-like characteristics and/or atrophic endometrium.

[2] = biological target: human estrogen receptor β (hERβ) (Homo sapiens, UniProt Q92731); test: In vitro bioassay of estrogenic agonistic transactivation in recombinant CHO cells (hERβ, rat oxytocin promoter, luciferase reporter); format: cell-based
Protocol: (§1) The agonistic activity of compounds on the estrogen receptors was determined in an in vitro bioassay with recombinant Chinese hamster ovary (CHO) cells stably co-transfected with the human estrogen receptor α (hERα) or β (hERβ), the rat oxytocin promoter (RO) and the luciferase reporter gene (LUC). […] A more detailed description of the methodology can be found in De Gooyer M. E., Deckers G. H., Schoonen W. G. E. J., Verheul H. A. M. and Kloosterboer H. J., Steroids, Vol. 68, 2003, pp. 21-30.
(§2) ERα/ERβ selectivity is defined as the ratio ERα-potency/ERβ-potency.

[3] = biological target: T1, human estrogen receptor α (hERα) (Homo sapiens, UniProt P03372); test: In vitro bioassay of estrogenic agonistic transactivation in recombinant CHO cells (hERα, rat oxytocin promoter, luciferase reporter); format: cell-based
T1 sequence (P03372 1-595): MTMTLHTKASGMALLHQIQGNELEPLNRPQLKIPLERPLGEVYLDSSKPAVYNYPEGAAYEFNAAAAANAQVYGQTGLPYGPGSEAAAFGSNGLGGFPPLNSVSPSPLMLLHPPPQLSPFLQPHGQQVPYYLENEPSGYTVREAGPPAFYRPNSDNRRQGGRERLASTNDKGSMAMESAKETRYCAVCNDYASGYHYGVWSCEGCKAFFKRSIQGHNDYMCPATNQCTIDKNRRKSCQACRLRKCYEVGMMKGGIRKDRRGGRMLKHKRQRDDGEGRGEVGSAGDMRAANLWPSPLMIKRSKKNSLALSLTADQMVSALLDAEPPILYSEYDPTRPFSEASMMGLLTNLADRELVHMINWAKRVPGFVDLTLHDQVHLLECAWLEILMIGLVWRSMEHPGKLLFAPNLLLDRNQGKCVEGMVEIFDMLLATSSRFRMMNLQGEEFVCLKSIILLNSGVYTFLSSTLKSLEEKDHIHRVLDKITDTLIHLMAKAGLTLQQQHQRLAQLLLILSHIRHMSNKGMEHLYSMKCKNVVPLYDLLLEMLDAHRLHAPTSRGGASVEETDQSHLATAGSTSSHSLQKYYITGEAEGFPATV
Protocol: as §1, §2

[4] = test system: progesterone-induced lordosis behavior in female ovariectomised rats; test: Facilitation of progesterone-induced lordosis behavior in female ovariectomised rats; format: in vivo, rat; conditions: oral dosing at 1 mg/kg.day, three days pre-treatment, then progestagen
Text: Rat female sexual behavior is hormone dependent. In estrogen-primed female rats progesterone clearly enhances female sexual or lordosis behavior. However, progesterone is not effective in inducing lordosis in ovariectomised females that have not received estrogen (see also J. B. Becker, S. M. Breedlove and D. Crews (Eds.), Behavioral Endocrinology, 1992, pp. 82-84).
Females were pre-treated for three days with test compound followed by treatment with a progestagen on the fourth day. Four hours after progesterone treatment sexual behavior of the female rat was measured in the presence of a male rat by counting the number of lordosis responses during 10 minutes.

[5] = relative to 17β-estradiol: (EC50 17β-estradiol/EC50 test compound)×100%, CHO cells, luciferase

human estrogen receptor β (hERβ), sequence (Q92731 whole entry): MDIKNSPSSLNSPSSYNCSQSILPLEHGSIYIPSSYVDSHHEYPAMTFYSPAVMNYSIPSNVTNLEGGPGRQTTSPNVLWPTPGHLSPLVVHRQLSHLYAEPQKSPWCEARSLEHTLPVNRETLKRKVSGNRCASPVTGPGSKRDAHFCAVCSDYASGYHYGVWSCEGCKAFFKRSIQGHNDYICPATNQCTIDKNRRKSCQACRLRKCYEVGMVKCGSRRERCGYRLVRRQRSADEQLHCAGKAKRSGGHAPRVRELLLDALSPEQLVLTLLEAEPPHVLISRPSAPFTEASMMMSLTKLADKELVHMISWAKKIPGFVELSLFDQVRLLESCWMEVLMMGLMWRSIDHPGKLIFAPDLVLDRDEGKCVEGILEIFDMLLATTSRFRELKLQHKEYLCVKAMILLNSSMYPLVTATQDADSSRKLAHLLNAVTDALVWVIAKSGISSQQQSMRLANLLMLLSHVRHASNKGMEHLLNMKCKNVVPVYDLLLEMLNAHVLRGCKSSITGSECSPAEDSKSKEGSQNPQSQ

SMILES | Monkey Endometrial profile (scores): Atrophic ([1]; 40 μg/kg once daily oral) | Monkey Endometrial profile (scores): Follicular ([1]; 40 μg/kg once daily oral) | Monkey Endometrial profile (scores): Luteal ([1]; 40 μg/kg once daily oral) | agonist character at the estrogen β-receptor ([2]; in words) | ERβ-efficacy (%) ([2]; maximal activation relative to maximal activation by 17β-estradiol) | ERβ-potency (%) [2, 5] [%] | ERα/ERβ-selectivity (potency) ([3]; ratio ERα-potency/ERβ-potency) | ERα-potency (%) [3, 5] [%] | Monkey Endometrial profile (scores): Atrophic ([1]; 200 μg/kg once daily oral) | Monkey Endometrial profile (scores): Follicular ([1]; 200 μg/kg once daily oral) | Monkey Endometrial profile (scores): Luteal ([1]; 200 μg/kg once daily oral) | in vivo estrogenic activity (facilitation of lordosis) [4]
C#C[C@]1(O)CC[C@H]2[C@@H]3CCc4cc(O)ccc4[C@H]3CC[C@@]21C [Compound X, 17α-ethynyl-17β-estradiol, reference compound] | 0 | 2.8 | 0.4 |  |  |  |  |  |  |  |  | 
C#C[C@]1(O)C[C@@H](C)[C@H]2[C@@H]3[C@H](CC)Cc4cc(O)ccc4[C@H]3CC[C@@]21C [Compound 8, 7α-ethyl-15β-methyl-19-nor-17α-pregna-1,3,5(10)-trien-20-yne-3,17β-diol] | 3.0 | 0.0 | 0.0 | partial agonist | 40 | 1.54 | 15.2 | 23.45 | 2.3 | 0.5 | 0.2 | 
C#CC1(O)CC(C)C2C3C(CC)Cc4cc(OC(=O)C(C)(C)C)ccc4C3CCC21C (stereo not drawn) [Compound 9a, 3-pivaloyloxy-7α-ethyl-15β-methyl-19-nor-17α-pregna-1,3,5(10)-trien-20-yne-17β-ol] |  |  |  |  |  |  |  |  |  |  |  | active estrogenic compounds
C[C@]12CC[C@@H]3c4ccc(O)cc4CC[C@H]3[C@@H]1CC[C@@H]2O [Compound Y, 17β-estradiol, reference compound] |  |  |  |  |  |  |  |  | 0 | 3.6 | 0.2 | 
